From US20250275993A1, “GLYCOSYLATION INHIBITORS AS THERAPEUTICS FOR STROKE” (The Regents of the University of California, priority 2022, published 2025)

Legend:
[1] = system: BCEC confluent monolayers; experiment: BCEC scratch assay; assay type: cell-based, bovine
Description: BCECs (passage 6-10) and HUVEC (passage 6-8) were used in this assay. Cells were grown until about 80% confluency in 6-well plates, washed twice with PBS and then starved in serum-free DMEM (low Glucose, Hyclone) for 5 hrs before making a “scratch” using 1 ml tip. Cell monolayers were briefly washed once with serum-free media, followed by various treatments in media containing 1% FBS. 48 hrs later, the assay was stopped by adding 2 ml 4% paraformaldehyde. 20 min later, fixed cells were stained with 1 ml Crystal Violet (Sigma). Plates were washed gently under the running tap water and air-dried before taking pictures. Images were acquired by ZEISS Discovery […] microscopy equipped with […] camera. Quantification of wound closure was done using AxioVision LE Rel.4.4 software. Six images were taken for each sample and six measurements (in pixel) were made on each image using AxioVision LE Re1.4.4 software.

[2] = system: ERK, AKT, mTOR, CREB, ACC and eNOS; experiment: Western blot of signal transduction pathways in BCECs; assay type: cell-based, bovine
Description: Cells were allowed to reach-80% confluency in 12-well plates. […] At various time points, plates were taken out of the incubator and kept on ice. […] Lysates were collected and mixed with 4× Bolt LDS Sample Buffer (Novex, Carlsbad, CA) in the presence of Halt protease inhibitors and phosphatase inhibitor cocktail (ThermoFisher scientific, #NP0007). […] HUVECs (passage 6-8) were plated in EBM-2 basal medium (Lonza) with 0.2% FBS. Following overnight culture, cells were serum-starved in EBM-2 medium for 4 hrs prior to treatment with 50 ng/ml of VEGF165 or vehicle controls for various lengths. Equal amounts of protein lysates were analyzed by SDS-PAGE and blotted with the indicated antibodies. Proteins were transferred using Tris-Glycine buffer with 20% Methanol (Proteonomics grade) (Apex BioResearch Products). Membranes were first incubated with 5% milk in TBST, pH 7.6 (TEKnova, Hollister, CA), followed by blotting with primary and secondary antibodies. ECL anti-rabbit IgG, horseradish peroxidase linked whole antibody from donkey or sheep anti-mouse were obtained from GE Healthcare (UK limited). SuperSignal West Dura Extended Duration substrate was from ThermoFisher Scientific. In some cases, the same PVDF membranes were stripped by 8-min incubation in the Restore Plus Western Blot Stripping Buffer (ThermoFisher Scientific) to show total specific protein expression, followed by second stripping for (3-actin expression.

[3] = system: ischemic hindlimb; experiment: Hindlimb ischemia model and evaluation of blood flow; assay type: in vivo, mouse; details: for blood vessel density vs H2O-treated control (CD31): 3 weeks post-ligation; for blood flow recovery one week after surgery: 20% ManN orally or 1 mg/ml Kif ip every other day, H2O group 25%
Description: The angiogenic effects of ManN and Kif in a mouse hindlimb ischemia model were assessed. The activity of ManN in a chronic ischemia model that might more specifically reflect its effects as an endothelial cell mitogen and a pro-angiogenic factor was assessed, and the hindlimb ischemia model in the mouse was considered. Several variants have been described, depending on which vessel is occluded. The variant chosen consists in ligation and excision of the femoral artery, which results in more severe ischemia compared to simple femoral artery ligation. Occlusion of two vessels produces more severe ischemia, but has the disadvantage of inducing severe pain and distress, as well as frequent ulcerations and necrosis in mice.
Oral administration of ManN was tested in this femoral artery ligation-excision model. Since Kif has been previously administered intraperitoneally for in vivo studies, this route was employed. Laser Doppler Perfusion Imaging (LDPI) was used as a non-invasive method to monitor time and extent of the blood flow recovery in the ischemic limb. Serial examination of blood flow was taken with LDPI and increment of the perfusion ratio of ischemic (ligated; left side) to non-ischemic (sham; right side) hindlimbs after ligation was used to indicate a recovery of blood flow. Starting immediately after surgery, mice were orally fed with 20% ManN or 1 mg/ml Kif ip every other day, as described in methods. One week after surgery, the perfusion ratio in H2O-fed group indicated a blood flow recovery of […], a value that is in good agreement with published data with the same type of lesion, in the same strain of mice.
C57BL/6 male mice (6-8 weeks old) were subjected to unilateral hindlimb surgery under anesthesia with ketamine/xylazine cocktail. Briefly, the left femoral artery was separated from the vein and nerve, ligated proximally, and excised. The right hindlimb served as control. Blood flow was measured by using a laser Doppler perfusion imager (PeriScan PSI; Perimed). Ischemic and nonischemic limb perfusion was measured before and after surgery and 1, 2 and 3 weeks later. After surgery, mice were randomly allocated to different groups (8 mice for each group). 200 μl of 20% ManN was orally administrated every other day from 3rd day after surgery. 200 μl of 1 mg/nil Kif was administrated through ip injection every other day. H2O was used as a vehicle control. The final blood flow values were expressed as the ratio of ischemic to nonischemic hindlimb perfusion from the same animal. Quantification of blood vessel area was carried out as described.

[4] = system: retinal vasculature; experiment: Retinal neovascularization after intravitreal injection; assay type: in vivo, mouse; details: 500 ng ManN or Kif, 200 ng bFGF intravitreally; after seven days
Description: The effect of ManN and Kif on inducing retinal neovascularization was assessed. The findings in cultured eye-derived EC were extended to a suitable in vivo model system. The mouse retina has been used extensively over the past decades to study both physiological and pathological angiogenesis. To obtain a detailed description of the retinal vasculature, images from retinal flat mounts were processed for vascular area fraction (ratio of area covered by blood vessels to total retinal area). Using this model, the effects of ManN in retinal neovascularization were assessed. Kif was also tested in this model because it is a water-soluble inhibitor and its mechanism of glycosylation inhibition is well established. In addition, it shares with ManN the ability to activate ERK, AKT and stress pathways in BCEC (FIG. 7E).
Assessment of retinal angiogenesis following intravitreal administration was done. Briefly, 6-8 weeks old C57BL/6 male mice were randomly allocated to different groups and anesthetized with ketamine/Xylazine cocktail. The indicated amounts of ManN, Kif or bFGF (R&D systems, AF-233-NA) in 1 μl of PBS and PBS vehicle control were injected intravitreally with a 33-gauge Hamilton syringe. Seven days after injection, animals were euthanized. Eyes were then enucleated and fixed in 4% paraformaldehyde (PFA) for 30 mins. Retinas were separated and stained with anti-CD31 immunofluorescence (IF) to evidence the vasculature. Evaluations were performed by an investigator blinded to the treatment. For CD31 IF, rat anti-mouse antibody (BD Biosciences, CAT #550274) was diluted 1:100 and incubated overnight at 4° C. After 4-hour incubation with the Alexa Fluor-488-conjugated anti-rat antibody (Life Technologies, A11006), whole mounts were imaged via the 488 nm channel using AIR Confocal STORM super-resolution system (Nikon). Quantification of vascular density in choroids and retina was carried out by Image J. Each experiment was repeated three times with similar results, and each treatment group consists of 5 individual samples.

O=C1N[C@@H]2[C@@H](O)[C@@H](O)[C@H](O)[C@@H](CO)N2C1=O [Kif, Kifunensine, reference compound]
gap closing in BCEC scratch assay by glycosylation inhibitors ([1]; over 48 hours relative to control): significant activity
activation of ERK and AKT in BCECs by glycosylation inhibitors ([2]; 40 μM, FIG. 7E): significantly activate ERK and AKT
blood vessel density vs H2O-treated control (CD31) [3]: 1.8 times higher
blood flow recovery one week after surgery [3]: ~47%
increase in density of retinal vessels vs PBS group [4]: ~20%

N[C@H](C=O)[C@@H](O)[C@H](O)[C@H](O)CO [ManN, 2-Amino-2-deoxy-D-mannose]
closure of the scratched area vs control ([1]; 40 μM ManN or 50 ng/ml of VEGF, after 48 hours): significantly accelerated BCEC migration and/or proliferation
additivity of ManN and VEGF in scratch assay ([1]; both ManN and VEGF): additivity was observed
activation of eNOS and ACC ([2]; 40 μM ManN, within 10-30 minutes): significantly activated
activation of ERK, AKT, mTOR and CREB ([2]; 40 μM, BCECs): activated
time to stimulation of ERK, AKT and CREB after adding ManN ([2]; 40 μM, BCECs): 10 to 30 min
activation of ERK, AKT and CREB with ManN plus VEGF vs either alone ([2]; both ManN and VEGF present): enhancement in activation
blood vessel density vs H2O-treated control (CD31) [3]: 2.3 times higher
blood flow recovery one week after surgery [3]: about 40%
increase in density of retinal vessels vs PBS group [4]: ~30%
